Laboratory results published in patent US6448256B1, “Antibiotic prodrugs” (University of Massachusetts, priority 1999, dated 2002).
≈ marks a conversion by molar mass, not a printed value. Where two headings read alike, the source gives them in different places.

How the values were obtained:
[1] = test system: E. fecalis; assay: MIC against E. fecalis; assay type: cell-based; settings: for MIC E. fecalis: Table 2
Procedure: (§1) To further investigate the antibacterial and/or DNA pol III inhibitory activity of various drug compounds, various ester-containing moieties N-linked to the EMAU core were produced as described in Example 1. These prodrugs were assayed for inhibition of B. subtilis DNA pol III and antibiotic activity against a number of bacteria.
(§2) The minimal inhibitory concentrations (MICs) of the four N3-substituted agents and EMAU were determined for B. subtilis (BS), methicillin-sensitive and resistant S. aureus (SA & MRSA), vancomycin-sensitive and resistant E. fecalis (EF& VREF), vancomycin-resistant E. fecium (VREF*), and E. coli (EC) as a Gram-negative control.

[2] = test system: MRSA2; assay: MIC against methicillin-resistant S. aureus strain MRSA2; assay type: cell-based; settings: for MIC MRSA2: Table 2; for MIC: Staphylococcus aureus, Table 5
Procedure: as §1, §2

[3] = test system: E. coli; assay: MIC against E. coli (Gram-negative control); assay type: cell-based; settings: for MIC E. coli: Table 2; for MIC: Escherichia coli, Table 5, Gram-negative control
Procedure: as §1, §2

[4] = biological target: B. subtilis DNA pol III (Bacillus subtilis, UniProt P13267); assay: Inhibition of B. subtilis DNA pol III (Ki); assay type: biochemical
B. subtilis DNA pol III, sequence (P13267 whole entry): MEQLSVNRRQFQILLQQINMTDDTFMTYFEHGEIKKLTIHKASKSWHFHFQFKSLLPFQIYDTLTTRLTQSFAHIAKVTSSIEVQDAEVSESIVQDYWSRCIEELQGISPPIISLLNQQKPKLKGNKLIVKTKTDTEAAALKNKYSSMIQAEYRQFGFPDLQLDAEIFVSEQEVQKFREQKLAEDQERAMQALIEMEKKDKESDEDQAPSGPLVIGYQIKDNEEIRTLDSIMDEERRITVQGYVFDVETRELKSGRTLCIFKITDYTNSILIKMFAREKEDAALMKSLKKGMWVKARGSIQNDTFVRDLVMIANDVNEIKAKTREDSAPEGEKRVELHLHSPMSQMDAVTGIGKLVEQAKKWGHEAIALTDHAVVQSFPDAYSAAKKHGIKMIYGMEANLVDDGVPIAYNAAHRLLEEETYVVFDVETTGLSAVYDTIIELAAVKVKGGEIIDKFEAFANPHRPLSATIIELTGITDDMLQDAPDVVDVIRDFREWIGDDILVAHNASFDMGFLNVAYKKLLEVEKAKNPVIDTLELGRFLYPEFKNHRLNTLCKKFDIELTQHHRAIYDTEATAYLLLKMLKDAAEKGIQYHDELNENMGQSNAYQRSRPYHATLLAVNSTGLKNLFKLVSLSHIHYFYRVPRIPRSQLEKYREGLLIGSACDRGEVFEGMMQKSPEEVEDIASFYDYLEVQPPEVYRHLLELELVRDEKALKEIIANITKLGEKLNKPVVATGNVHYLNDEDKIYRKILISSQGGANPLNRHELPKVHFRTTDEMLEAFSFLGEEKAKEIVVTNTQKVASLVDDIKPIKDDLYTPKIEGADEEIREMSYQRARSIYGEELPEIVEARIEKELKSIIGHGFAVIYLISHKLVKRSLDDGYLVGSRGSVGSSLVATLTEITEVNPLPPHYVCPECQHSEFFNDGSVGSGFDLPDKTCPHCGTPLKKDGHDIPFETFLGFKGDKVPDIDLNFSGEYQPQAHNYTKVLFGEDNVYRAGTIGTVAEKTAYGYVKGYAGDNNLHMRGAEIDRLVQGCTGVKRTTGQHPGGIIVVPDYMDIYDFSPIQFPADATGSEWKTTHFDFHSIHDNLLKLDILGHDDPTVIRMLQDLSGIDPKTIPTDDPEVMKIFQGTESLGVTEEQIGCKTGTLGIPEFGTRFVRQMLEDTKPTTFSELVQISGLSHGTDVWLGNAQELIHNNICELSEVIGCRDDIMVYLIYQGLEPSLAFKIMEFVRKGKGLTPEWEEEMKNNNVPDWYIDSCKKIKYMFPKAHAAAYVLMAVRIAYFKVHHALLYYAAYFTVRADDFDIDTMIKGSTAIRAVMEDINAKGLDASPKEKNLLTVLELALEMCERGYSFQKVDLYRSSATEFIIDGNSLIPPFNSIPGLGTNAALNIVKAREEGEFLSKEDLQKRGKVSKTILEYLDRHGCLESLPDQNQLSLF
Procedure: as §1
(§3) The competitive inhibitor constants (Ki) of selected EMAU compounds were determined with three different pol Ills: the pol III enzyme from Bacillus subtilis (BS pol III), and the pol III enzymes of the clinically relevant pathogens, Enterococcus fecalis (EF pol III) and Staphylococcus aureus (SA pol 111).

[5] = test system: MRSA; assay: MIC against methicillin-resistant S. aureus strain MRSA / MRSA1; assay type: cell-based; settings: for MIC MRSA: Table 2; for MIC: Staphylococcus aureus, MRSA, Table 5
Procedure: as §1, §2

[6] = test system: vancomycin-resistant E. fecium; assay: MIC against vancomycin-resistant E. fecium (VRE, VREF*); assay type: cell-based; settings: for MIC VRE: Table 2, vancomycin-resistant E. fecium; for MIC: Enterococcus, Table 5, vancomycin-resistant E. fecium
Procedure: as §1, §2

[7] = test system: B. subtilis; assay: MIC against B. subtilis; assay type: cell-based; settings: for MIC B. subtilis: Table 2; for MIC: Bacillus subtilis
Procedure: as §1, §2

[8] = test system: S. aureus; assay: MIC against S. aureus (methicillin-sensitive); assay type: cell-based; settings: for MIC S. aureus: Table 2; for MIC: Staphylococcus aureus
Procedure: as §1, §2

[9] = test system: E. fecium; assay: MIC against E. fecium; assay type: cell-based; settings: Table 2
Procedure: as §1

[10] = biological target: T1, SA pol III (Staphylococcus aureus, UniProt P0C1P9); assay: Inhibition of S. aureus pol III (Ki); assay type: biochemical; settings: Table 4, average of 3 determinations, standard deviation 13.4%
T1 sequence (P0C1P9 1-1435): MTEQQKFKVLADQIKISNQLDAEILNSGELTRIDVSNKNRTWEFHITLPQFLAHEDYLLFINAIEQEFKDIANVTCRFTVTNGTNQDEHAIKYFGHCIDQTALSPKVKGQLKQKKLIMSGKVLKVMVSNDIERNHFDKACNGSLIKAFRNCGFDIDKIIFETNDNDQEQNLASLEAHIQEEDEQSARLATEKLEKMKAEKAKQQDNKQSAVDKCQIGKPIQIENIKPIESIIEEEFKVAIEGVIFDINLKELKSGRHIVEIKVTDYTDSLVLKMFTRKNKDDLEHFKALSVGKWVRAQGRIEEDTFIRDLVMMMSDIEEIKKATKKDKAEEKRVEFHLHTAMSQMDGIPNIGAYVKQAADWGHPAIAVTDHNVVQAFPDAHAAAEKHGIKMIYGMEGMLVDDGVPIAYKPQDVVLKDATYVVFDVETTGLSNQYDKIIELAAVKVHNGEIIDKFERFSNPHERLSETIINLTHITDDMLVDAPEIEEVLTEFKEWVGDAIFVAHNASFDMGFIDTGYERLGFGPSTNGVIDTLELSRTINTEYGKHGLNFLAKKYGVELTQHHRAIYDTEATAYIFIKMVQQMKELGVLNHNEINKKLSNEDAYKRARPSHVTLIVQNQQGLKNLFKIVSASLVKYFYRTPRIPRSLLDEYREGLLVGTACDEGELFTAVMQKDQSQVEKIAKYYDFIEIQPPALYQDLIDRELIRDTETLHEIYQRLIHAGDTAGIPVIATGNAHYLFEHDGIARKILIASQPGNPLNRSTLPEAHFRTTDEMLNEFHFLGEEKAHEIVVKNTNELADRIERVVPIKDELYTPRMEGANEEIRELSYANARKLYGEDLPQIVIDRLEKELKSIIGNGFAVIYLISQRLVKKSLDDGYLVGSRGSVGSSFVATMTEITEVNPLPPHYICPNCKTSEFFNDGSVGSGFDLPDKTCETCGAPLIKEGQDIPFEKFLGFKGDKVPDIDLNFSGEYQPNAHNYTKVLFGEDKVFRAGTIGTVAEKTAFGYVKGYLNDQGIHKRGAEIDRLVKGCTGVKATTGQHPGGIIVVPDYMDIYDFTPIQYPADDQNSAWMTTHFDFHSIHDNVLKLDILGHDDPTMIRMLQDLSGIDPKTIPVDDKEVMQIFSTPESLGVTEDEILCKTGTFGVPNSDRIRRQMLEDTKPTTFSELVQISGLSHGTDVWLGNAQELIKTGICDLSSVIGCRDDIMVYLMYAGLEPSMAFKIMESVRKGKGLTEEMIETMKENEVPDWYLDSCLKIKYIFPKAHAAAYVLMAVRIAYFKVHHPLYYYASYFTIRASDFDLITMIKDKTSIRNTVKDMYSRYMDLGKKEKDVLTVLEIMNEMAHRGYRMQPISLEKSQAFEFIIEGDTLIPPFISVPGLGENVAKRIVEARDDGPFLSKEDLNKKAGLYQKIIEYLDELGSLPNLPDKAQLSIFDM
Procedure: as §3

[11] = biological target: EF pol III (Enterococcus faecalis, UniProt Q831W8); assay: Inhibition of E. fecalis pol III (Ki); assay type: biochemical
Procedure: as §3

[12] = test system: vancomycin-resistant E. fecalis; assay: MIC against vancomycin-resistant E. fecalis (VREF); assay type: cell-based; settings: Table 5, vancomycin-resistant E. fecalis
Procedure: as §2

[13] = test system: B. subtilis; assay: Antibacterial activity of crude compounds made by small scale synthesis; assay type: cell-based; settings: crude reaction mixtures dissolved in DMSO, assayed directly
Procedure: 6-Anilinouracils were synthesized using small scale synthetic methods. One milligram quantities of 3-(3-methoxypropyl)-6-chlorouracil were heated with 42 substituted anilines in micro-test tubes at 130° C. for 20 minutes. The reaction mixtures were dissolved in DMSO and assayed directly for antibacterial activity.

[14] = Table 2, prodrugs having the EMAU core, read-out: Ki B. subtilis DNA Pol III
[15] = Table 5, vancomycin-sensitive, read-out: MIC EF
[16] = Table 4, average of 3 determinations, standard deviation 13.4%, read-out: KI Bs pol III
[17] = Table 5, methicillin-sensitive, read-out: MIC SA
[18] = Table 6, read-out: MIC E. fecalis
[19] = Table 6, read-out: Ki, inhibition constant vs. B. subtilis DNA pol III
[20] = Table 6, read-out: MIC B. subtilis
[21] = Table 4, average of 3 determinations, standard deviation 13.4%, read-out: KI EF pol III

SMILES	MIC E. fecalis [1]	MIC MRSA2 [2]	MIC E. coli [3]	Ki [4, 14]	MIC MRSA [5]	MIC VRE [6]	MIC B. subtilis [7]	MIC S. aureus [8]	MIC E. fecium [9]	other results
CCc1cc(Nc2cc(=O)n(CCCCOC(=O)C3CCCN3C(=O)OC(C)(C)C)c(=O)[nH]2)ccc1C (stereo not shown) [(CH2)4-OCOCH(CH2)3NH-Boc]	10 μ/ml	10 μ/ml	>20 μ/ml	3200 nM	20 μ/ml	10 μ/ml	<1.25 μ/ml	10 μ/ml	10 μ/ml	–
CCc1cc(Nc2cc(=O)[nH]c(=O)[nH]2)ccc1C [EMAU, 6-(3-ethyl-4-methylanilino)uracil, reference compound]	–	–	–	–	–	–	–	–	–	MIC [1, 15]: 25 µg/mL (≈ 102 µM); MIC [2]: 25 µg/mL (≈ 102 µM); MIC [3]: > 35 µg/mL; Ki [10]: 810 nM; Ki [11]: 260 nM; Ki [4, 16]: 250 nM; MIC [5]: 25 µg/mL (≈ 102 µM); MIC [6]: 25 µg/mL (≈ 102 µM); MIC [12]: 25 µg/mL (≈ 102 µM); MIC ([7]; Table 5, read-out: MIC BS): 12 µg/mL (≈ 48.9 µM); MIC [8, 17]: 25 µg/mL (≈ 102 µM)
CCc1cc(Nc2cc(=O)n(CCCCOC(=O)C(CO)NC(=O)OC(C)(C)C)c(=O)[nH]2)ccc1C (stereo not shown) [(CH2)4-OCOCH(CH2OH)NH-Boc]	5 μ/ml	20 μ/ml	>20 μ/ml	1500 nM	20 μ/ml	5 μ/ml	5 μ/ml	20 μ/ml	10 μ/ml	–
CCc1cc(Nc2cc(=O)n(CCCCOC(=O)C(NC(=O)OC(C)(C)C)C(C)C)c(=O)[nH]2)ccc1C (stereo not shown) [(CH2)4-OCOCH(iPr)NH-Boc]	>20 μ/ml	>20 μ/ml	>20 μ/ml	4900 nM	>20 μ/ml	>20 μ/ml	2.5 μ/ml	>20 μ/ml	>20 μ/ml	–
CCc1cc(Nc2cc(=O)n(CCCCOC)c(=O)[nH]2)ccc1C [MB-EMAU]	–	–	–	–	–	–	–	–	–	MIC [1, 18]: 6 µg/mL (≈ 18.1 µM); Ki [4, 19]: 430 nM; MIC [7, 20]: < 3.1 µg/mL; MIC ([8]; read-out: MIC S. aureas): 6 µg/mL (≈ 18.1 µM)
CCc1cc(Nc2cc(=O)n(CCOC)c(=O)[nH]2)ccc1C [ME-EMAU]	–	–	–	–	–	–	–	–	–	MIC [1, 15]: 6.2 µg/mL (≈ 20.4 µM); MIC [2]: 12.4 µg/mL (≈ 40.9 µM); MIC [3]: > 35 µg/mL; Ki [10]: 820 nM; Ki [11, 21]: 160 nM; Ki [4, 16]: 190 nM; MIC [5]: 8.3 µg/mL (≈ 27.4 µM); MIC [6]: 8.3 µg/mL (≈ 27.4 µM); MIC [12]: 6.2 µg/mL (≈ 20.4 µM); MIC ([7]; Table 5, read-out: MIC BS): 1 µg/mL (≈ 3.3 µM); MIC [8, 17]: 10.3 µg/mL (≈ 34 µM)
Cc1ccc(Nc2cc(=O)n(CCCCI)c(=O)[nH]2)cc1I [IB-IMAU]	–	–	–	–	–	–	–	–	–	MIC [1, 18]: 6 µg/mL (≈ 11.4 µM); Ki [4, 19]: 660 nM; MIC [7, 20]: < 3.1 µg/mL; MIC ([8]; read-out: MIC S. aureas): 6 µg/mL (≈ 11.4 µM)
CCc1cc(Nc2cc(=O)n(CCCCOC(=O)C(N)Cc3ccccc3)c(=O)[nH]2)ccc1C (stereo not shown) [(CH2)4-OCOCH(CH2Ph)NH3^+Cl^−]	>20 μ/ml	>20 μ/ml	>20 μ/ml	6200 nM	>20 μ/ml	>20 μ/ml	>20 μ/ml	>20 μ/ml	>20 μ/ml	–
COCCCCn1c(=O)cc(Nc2ccc(C)c(I)c2)[nH]c1=O [ME-IMAU]	–	–	–	–	–	–	–	–	–	MIC [1, 18]: 3 µg/mL (≈ 6.99 µM); Ki [4, 19]: 540 nM; MIC [7, 20]: < 3.1 µg/mL; MIC ([8]; read-out: MIC S. aureas): 6 µg/mL (≈ 14 µM)
CCc1cc(Nc2cc(=O)n(CCCCOC(=O)C(C)N)c(=O)[nH]2)ccc1C (stereo not shown) [(CH2)4-OCOCHCH3NH3^+Cl^−]	10 μ/ml	20 μ/ml	>20 μ/ml	180 nM	20 μ/ml	10 μ/ml	2.5 μ/ml	20 μ/ml	10 μ/ml	–
CCc1cc(Nc2cc(=O)n(CCCCI)c(=O)[nH]2)ccc1C [IB-EMAU, 3-(4-iodobutyl)-6-(3-ethyl-4-methylanilino)uracil]	–	–	–	–	–	–	–	–	–	MIC [1, 18]: 6 µg/mL (≈ 14 µM); Ki [4, 19]: 360 nM; MIC [7, 20]: < 3.1 µg/mL; MIC ([8]; read-out: MIC S. aureas): 12 µg/mL (≈ 28.1 µM)
CCc1cc(Nc2cc(=O)n(CCCCOC(=O)C(N)CO)c(=O)[nH]2)ccc1C.Cl (stereo not shown) [(CH2)4-OCOCH(CH2OH)NH3^+Cl^−]	20 μ/ml	>20 μ/ml	>20 μ/ml	10 nM	>20 μ/ml	20 μ/ml	10 μ/ml	>20 μ/ml	20 μ/ml	–
CCc1cc(Nc2cc(=O)n(CCO)c(=O)[nH]2)ccc1C [HE-EMAU]	–	–	–	–	–	–	–	–	–	MIC [1, 15]: 6.5 µg/mL (≈ 22.5 µM); MIC [2]: 17.4 µg/mL (≈ 60.1 µM); MIC [3]: > 35 µg/mL; Ki [10]: 980 nM; Ki [11, 21]: 170 nM; Ki [4, 16]: 200 nM; MIC [5]: 17.4 µg/mL (≈ 60.1 µM); MIC [6]: 8.7 µg/mL (≈ 30.1 µM); MIC [12]: 8.7 µg/mL (≈ 30.1 µM); MIC ([7]; Table 5, read-out: MIC BS): 1.1 µg/mL (≈ 3.8 µM); MIC [8, 17]: 8.7 µg/mL (≈ 30.1 µM)
COCCCn1c(=O)cc(Nc2ccc(O)cc2)[nH]c1=O [Compound 4-OH]	–	–	–	–	–	–	–	–	–	MIC B. subtilis [13]: >100 µg/mL
COCCCn1c(=O)cc(Nc2ccc(Br)c(Br)c2)[nH]c1=O [3,4-diBr]	–	–	–	–	–	–	–	–	–	MIC B. subtilis [13]: 3.13 µg/mL (≈ 7.23 µM)
COCCCn1c(=O)cc(Nc2cc(OC(F)(F)F)cc(OC(F)(F)F)c2)[nH]c1=O [3,5-diOCF3]	–	–	–	–	–	–	–	–	–	MIC B. subtilis [13]: >100 µg/mL
